Experimental data: US11597721B2, “Heterocyclic compounds comprising pyridine useful as modulators of IL-12, IL-23 and/or IFNα responses” (BRISTOL-MYERS SQUIBB COMPANY, priority 2018, dated 2023)

Tested on: IFNα-Induced STAT Phosphorylation
Experiment: IFNα-Induced STAT Phosphorylation in Human Whole Blood
Format: cell-based
Details: 1 h compound incubation, 1000 U/mL recombinant human IFNα A/D for 15 min, pSTAT5 in CD3 positive population, read-out: LE Human WB IFNα-Induced Stat Phosph. (IC50)
Excerpt: IFNα-Induced STAT Phosphorylation in Human Whole Blood
The amount of pSTAT5 expression was quantitated by median fluorescence intensity after gating on the CD3 positive population.

IC50 [nM]	Compound
50	[2H]C([2H])([2H])NC(=O)c1nnc(Nc2ccccn2)cc1Nc1nccc(-c2ncn(C)n2)c1OC [Example 2, 4-{[3-methoxy-4-(1-methyl-1H-1,2,4-triazol-3-yl)pyridin-2-yl]amino}-N—(^2H3)methyl-6-[(pyridin-2-yl)amino]pyridazine-3-carboxamide]

Same assay, conditions: Homo sapiens, 1 h compound incubation, 1000 U/mL recombinant human IFNα A/D for 15 min, pSTAT5 in CD3 positive population, read-out: LE Human WB IFNα-Induced Stat Phosph. (IC50)

IC50 [nM]	Compound
80	[2H]C([2H])([2H])NC(=O)c1cnc(NC(=O)C2CC2)cc1Nc1nccc(-c2ccccn2)c1OC [Example 84, 6-(Cyclopropanecarboxamido)-4-((3′-methoxy-[2,4′-bipyridin]-2′-yl)amino)-N-(methyl-d3)nicotinamide]
700	[2H]C([2H])([2H])NC(=O)c1nnc(NC(=O)CC(C)C)cc1Nc1nccc(-c2noc(CN3CCOCC3)n2)c1OC [Example 69, 4-[(3-methoxy-4-{5-[(morpholin-4-yl)methyl]-1,2,4-oxadiazol-3-yl}pyridin-2-yl)amino]-N—(^2H3)methyl-6-(3-methylbutanamido)pyridazine-3-carboxamide]
420	[2H]C([2H])([2H])NC(=O)c1nnc(NC(=O)CC(C)C)cc1Nc1nccc(-c2noc(CN3CCOC3=O)n2)c1OC [Example 71, 4-[(3-methoxy-4-{5-[(2-oxo-1,3-oxazolidin-3-yl)methyl]-1,2,4-oxadiazol-3-yl}pyridin-2-yl)amino]-N—(^2H3)methyl-6-(3-methylbutanamido)pyridazine-3-carboxamide]
600	[2H]C([2H])([2H])NC(=O)c1nnc(Nc2cc(C(C)(C)O)ccn2)cc1Nc1nccc(-c2noc(C)n2)c1OC [Example 80, 6-{[4-(2-hydroxypropan-2-yl)pyridin-2-yl]amino}-4-{[3-methoxy-4-(5-methyl-1,2,4-oxadiazol-3-yl)pyridin-2-yl]amino}-N—(^2H3)methylpyridazine-3-carboxamide]
30	[2H]C([2H])([2H])NC(=O)c1nnc(Nc2ccc(C(C)(C)O)cn2)cc1Nc1nccc(-c2noc(C)n2)c1OC [Example 82, 6-{[5-(2-hydroxypropan-2-yl)pyridin-2-yl]amino}-4-{[3-methoxy-4-(5-methyl-1,2,4-oxadiazol-3-yl)pyridin-2-yl]amino}-N—(^2H3)methylpyridazine-3-carboxamide]
90	[2H]C([2H])([2H])NC(=O)c1nnc(Nc2cc(Cl)n(C)n2)cc1Nc1nccc(-c2cnc(C(=O)N(C)C)cn2)c1OC [Example 92, 6-((5-Chloro-1-methyl-1H-pyrazol-3-yl)amino)-4-((4-(5-(dimethylcarbamoyl)pyrazin-2-yl)-3-methoxypyridin-2-yl)amino)-N-(methyl-d3)pyridazine-3-carboxamide]
210	[2H]C([2H])([2H])NC(=O)c1nnc(NC(=O)CC2CC2)cc1Nc1nccc(-c2cnc(C(=O)N(C)C)cn2)c1OC [Example 89, 6-(2-Cyclopropylacetamido)-4-((4-(5-(dimethylcarbamoyl)pyrazin-2-yl)-3-methoxypyridin-2-yl)amino)-N-(methyl-d3)pyridazine-3-carboxamide]
280	[2H]C([2H])([2H])NC(=O)c1cnc(Nc2cc(C)ccn2)cc1Nc1nccc(-c2nnn(C)n2)c1OC [Example 103, 4-((3-methoxy-4-(2-methyl-2H-tetrazol-5-yl)pyridin-2-yl)amino)-N-(methyl-d3)-6-((4-methylpyridin-2-yl)amino)nicotinamide]

Continued, compound first:

Compound	IC50 [nM]
[2H]C([2H])([2H])NC(=O)c1cnc(NC(=O)CC)cc1Nc1nccc(-c2noc(COC)n2)c1OC [Example 48, 4-({3-methoxy-4-[5-(methoxymethyl)-1,2,4-oxadiazol-3-yl]pyridin-2-yl}amino)-N—(^2H3)methyl-6-propanamidopyridine-3-carboxamide]	200
[2H]C([2H])([2H])NC(=O)c1nnc(NC(=O)C2CC2)cc1Nc1nccc(-c2noc(CN(C)S(C)(=O)=O)n2)c1OC [Example 54, 6-cyclopropaneamido-4-[(3-methoxy-4-{5-[(N-methylmethanesulfonamido)methyl]-1,2,4-oxadiazol-3-yl}pyridin-2-yl)amino]-N—(^2H3)methylpyridazine-3-carboxamide]	10
[2H]C([2H])([2H])NC(=O)c1cnc(NC(=O)C2CC2)cc1Nc1nccc(-c2noc(COC)n2)c1OC [Example 45, 6-cyclopropaneamido-4-({3-methoxy-4-[5-(methoxymethyl)-1,2,4-oxadiazol-3-yl]pyridin-2-yl}amino)-N—(^2H3)methylpyridine-3-carboxamide]	10
[2H]C([2H])([2H])NC(=O)c1nnc(NC(=O)C2CC2)cc1Nc1nccc(-c2noc(COC)n2)c1OC [Example 50, 6-cyclopropaneamido-4-({3-methoxy-4-[5-(methoxymethyl)-1,2,4-oxadiazol-3-yl]pyridin-2-yl}amino)-N—(^2H3)methylpyridazine-3-carboxamide]	40
[2H]C([2H])([2H])NC(=O)c1nnc(Nc2ccc(-n3cccc(C(F)(F)F)c3=O)cn2)cc1Nc1nccc(-c2ncn(C)n2)c1OC [Example 26, 4-{[3-methoxy-4-(1-methyl-1H-1,2,4-triazol-3-yl)pyridin-2-yl]amino}-N—(^2H3)methyl-6-{[2-oxo-3-(trifluoromethyl)-2H-[1,3′-bipyridine]-6-yl]amino}pyridazine-3-carboxamide]	30
[2H]C([2H])([2H])NC(=O)c1nnc(Nc2ccc(-n3ccccc3=O)cn2)cc1Nc1nccc(-c2ncn(C)n2)c1OC [Example 24, 4-{[3-methoxy-4-(1-methyl-1H-1,2,4-triazol-3-yl)pyridin-2-yl]amino}-N—(^2H3)methyl-6-({2-oxo-2H-[1,3′-bipyridine]-6′-yl}amino)pyridazine-3-carboxamide]	30
[2H]C([2H])([2H])NC(=O)c1nnc(NC(=O)C2CC2)cc1Nc1nccc(-c2noc(CN3CCOCC3)n2)c1OC [Example 55, 6-cyclopropaneamido-4-[(3-methoxy-4-{5-[(morpholin-4-yl)methyl]-1,2,4-oxadiazol-3-yl}pyridin-2-yl)amino]-N—(^2H3)methylpyridazine-3-carboxamide]	30
[2H]C([2H])([2H])NC(=O)c1nnc(Nc2cc(C)ccn2)cc1Nc1nccc(-c2noc(COC)n2)c1OC [Example 62, 4-({3-methoxy-4-[5-(methoxymethyl)-1,2,4-oxadiazol-3-yl]pyridin-2-yl}amino)-N—(^2H3)methyl-6-[(4-methylpyridin-2-yl)amino]pyridazine-3-carboxamide]	1130
[2H]C([2H])([2H])NC(=O)c1nnc(NC(=O)C2CC2)cc1Nc1nccc(C#N)c1OC [Example 51, 4-[(4-cyano-3-methoxypyridin-2-yl)amino]-6-cyclopropaneamido-N—(^2H3)methylpyridazine-3-carboxamide]	> 10000
[2H]C([2H])([2H])NC(=O)c1nnc(Nc2cc(Cl)ccn2)cc1Nc1nccc(-c2ncn(C)n2)c1OC [Example 21, 6-[(4-chloropyridin-2-yl)amino]-4-{[3-methoxy-4-(1-methyl-1H-1,2,4-triazol-3-yl)pyridin-2-yl]amino}-N—(^2H3)methylpyridazine-3-carboxamide]	30
[2H]C([2H])([2H])NC(=O)c1nnc(Nc2nnc(C)s2)cc1Nc1nccc(-c2ncn(C)n2)c1OC [Example 20, 4-{[3-methoxy-4-(1-methyl-1H-1,2,4-triazol-3-yl)pyridin-2-yl]amino}-N—(^2H3)methyl-6-[(5-methyl-1,3,4-thiadiazol-2-yl)amino]pyridazine-3-carboxamide]	1510
